Measurements reported in US10556926B2, “Synthetic artificial peptides with antimicrobial effect” (priority 2014, dated 2020).
Like-named read-outs stand apart in the source and are kept apart here. No end group written: not given here.

How the values were obtained:
Staphylococcus xylosus = assay: Mixed culture experiment (bacterially contaminated cell culture), bacteria; type: cell-based; settings: 25 and 50 μM peptide, two hours, with U937
Protocol: (§1) Destruction of the bacteria membranes by the antimicrobial peptides was investigated in a flow cytometric method with the help of a living/dead staining method in combination with an internal calibration and counting system. For this purpose, SYBR Green I (Sigma-Aldrich) was used as total staining and propidium iodide (Sigma-Aldrich) was used as contrast staining for membrane-damaged bacteria. […] The flow analysis was carried out on a Cytomics FC500 Instrument (Beckmann Coulter, Munich, Germany) equipped with an argon laser (488 nm) and the corresponding emission filters for SYBR Green I (525 nm) and propidium iodide (620 nm). […] Then, the mixture was incubated for 10 min in the dark at room temperature and then measured by flow cytometry. The number of events in each gate was captured and evaluated using the CXP Analyses 2.2 Software. The total number of living and dead bacteria was calculated. […]
(§2) The ability of the antimicrobial peptides to be used as a therapeutic active ingredient was investigated by reference to its selective antimicrobial properties in model mixed culture experiments. […] Then, the mixed cell cultures were stained and measured by flow cytometry as described in example 3, the measurement scale being adapted to the measurement of the larger eukaryotic cells.

[1] = system: human histiocytic lymphoma cell line U937; assay: Long-term growth inhibition, minimum toxic concentration (MTC)
How it was run: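 U937 cells (5·10^4/ml final, RPMI 1640 + 2 mM glutamine + 10% FCS) exposed to peptides at 0.25–64 µM for 2 h at 37 °C, 5% CO2, then cultured at least four further days. MTC taken as the lowest peptide concentration giving complete growth suppression after four days.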

human cell line U937 = assay: Mixed culture experiment (bacterially contaminated cell culture), eukaryotic cells; type: cell-based; settings: 25 and 50 μM peptide, two hours, with S. xylosus
Protocol: as §1, §2

[2] = U937, complete suppression of cell growth after four days

Compound | Killing of S. xylosus cells in mixed culture (Staphylococcus xylosus) | Toxicity MTC (minimum toxic concentration) [1, 2] [µM] | Effect on eukaryotic U937 cells in mixed culture (human cell line U937) | Toxicity MTC (minimum toxic concentration) [1] [µM]
CC[C@H](C)[C@H](NC(=O)CN)C(=O)NCC(=O)N[C@@H](C)C(=O)N[C@H](C(=O)N[C@@H](CC(C)C)C(=O)N[C@@H](CCCCN)C(=O)N[C@H](C(=O)N[C@@H](CC(C)C)C(=O)N[C@H](C(=O)N[C@H](C(=O)NCC(=O)N[C@@H](CC(C)C)C(=O)N1CCC[C@H]1C(=O)N[C@@H](C)C(=O)N[C@@H](CC(C)C)C(=O)N[C@H](C(=O)N[C@@H](CO)C(=O)N[C@@H](Cc1c[nH]c2ccccc12)C(=O)N[C@H](C(=O)N[C@@H](CCCCN)C(=O)N[C@@H](CCCNC(=N)N)C(=O)N[C@@H](CCCCN)C(=O)N[C@@H](CCCNC(=N)N)C(=O)N[C@@H](CCC(N)=O)C(=O)N[C@@H](CCC(N)=O)C(N)=O)[C@@H](C)CC)[C@@H](C)CC)[C@@H](C)O)[C@@H](C)O)C(C)C)C(C)C [Melittin] | comprehensive killing of bacteria cells | 2.0 | destroys all of the eukaryotic U937 cells | –
ILPWKWPWWPWRR [Indolicidin] | – | >64 | – | –
KILILIKRK-OH [N4] | – | – | – | >64
KRKRKILILIKRK-OH [N1] | – | – | – | 32
MPRRRRSSSRPVRRRRRPRVSRRRRRRGGRRR (Protamine) | – | – | – | 16
